Measurements from BindingDB's records for doi:10.1016/j.bioorg.2013.11.005 (Sastra University, 2014).

Legend:
Angiogenin = Angiogenin (Homo sapiens, UniProt P03950); assay: Inhibition Kinetics with Angiogenin; conditions: pH 6
Experimental: The assay was carried out in oligovinylsulfonic acid free 0.1 M Mes-NaOH buffer (pH 6.0) containing 0.1 M NaCl using substrate concentration from 20 to 122 nM. The concentration of compounds 2, 3, 4 and 5 ranged from 0 to 0.8, 0 to 1.2, 0 to 1.2 and 0 to 2.5 mM, respectively. The angiogenin concentration was 0.36 µM.

[1] = molecular target: Ribonuclease pancreatic (Bos taurus) (UniProt P61823)
Chain of Ribonuclease pancreatic (Bos taurus) (P61823 whole entry, looked up): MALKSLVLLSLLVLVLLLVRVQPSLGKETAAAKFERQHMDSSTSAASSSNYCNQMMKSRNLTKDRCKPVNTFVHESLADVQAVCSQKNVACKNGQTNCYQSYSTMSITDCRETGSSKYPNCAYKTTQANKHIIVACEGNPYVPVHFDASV

Chain of Angiogenin (P03950 whole entry): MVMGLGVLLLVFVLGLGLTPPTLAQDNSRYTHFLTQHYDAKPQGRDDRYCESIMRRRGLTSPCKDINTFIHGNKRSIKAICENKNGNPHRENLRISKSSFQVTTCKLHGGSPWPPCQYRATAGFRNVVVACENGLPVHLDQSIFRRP

Row | Ki (Angiogenin) [µM] | Ki [1] [µM] | Structure (SMILES)
1 | 775 | 132 | Cc1cn([C@H]2C[C@@H](NC(=O)C(=O)O)[C@@H](CO)O2)c(=O)[nH]c1=O [N-[2-Hydroxymethyl-5-(5-methyl-2,4-dioxo-3,4-dihydro-2H-pyrimidin-1-yl)-tetrahydro-furan-3-yl]-oxalamic acid (Compound 5)]
2 | 1110 | 380 | Cc1cn([C@H]2C[C@@H](NC(=O)CC(=O)O)[C@@H](CO)O2)c(=O)[nH]c1=O [N-[2-Hydroxymethyl-5-(5-methyl-2,4-dioxo-3,4-dihydro-2H-pyrimidin-1-yl)-tetrahydro-furan-3-yl]-malonamic acid (Compound 6)]
3 | 1250 | 451 | Cc1cn([C@H]2C[C@@H](NC(=O)C(N)Cc3ccc(O)cc3)[C@@H](CO)O2)c(=O)[nH]c1=O (stereo partly drawn) [Tyr-aT (Compound 3)]
4 | 427 | 80 | Cc1cn([C@H]2C[C@@H](NC(=O)C(N)CO)[C@@H](CO)O2)c(=O)[nH]c1=O (stereo partly drawn) [Ser-aT (Compound 2)]
